Data as given in patent publication US20120020930A1, “METHODS FOR THE PREPARATION OF ADIPOSE DERIVED STEM CELLS AND UTILIZING SAID CELLS IN THE TREATMENT OF DISEASES” (CELLERIX, S.A., priority 2008, published 2012).
“Also recorded” adds a separate entry of the source.

Key:
ASC [1] = assay: IDO expression in ASC upon stimulation with pro-inflammatory mediators (RT-PCR and Western Blot); type: cell-based; conditions: TNF-α at 50 ng/mi
ASC [2] = assay: Transwell migration of ASC towards SDF-1 in the presence of Diprotin A; type: cell-based, human; conditions: Diprotin A 0, 1, 5, 10 mM on upper surface; SDF-1 50 μM in well; 24 h; crystal violet stained cells counted; FIG. 1
Procedure: ASC were obtained from lipoaspirates obtained from human adipose tissue from healthy adult donors. Lipoaspirates were washed twice with PBS, and digested at 37° C. for 30 minutes with 0.075% collagenase (Type I, Invitrogen, Carlsbad, Calif.) in PBS. The digested sample was washed with 10% of fetal bovine serum (FBS), treated with 160 mM CINH4, suspended in culture medium (DMEM containing 10% FBS) and filtered through a 40-μm nylon mesh. Cells were seeded (2-3×10^4 cells/cm^2) onto tissue culture flasks and expanded at 37° C. and 5% CO2, changing the culture medium every 7 days. Cells were passed to a new culture flask (1,000 cells/cm^2) when cultures reached 90% of confluence. Cells were phenotypically characterized by their capacity to differentiate into chondro-, osteo-, and adipo-genic lineages. A pool of 6 ASC samples from different donors (culture passage 4-6) was used.
ASC (10^4 cells) were seeded onto the upper surface of a Transwell permeable support insert with a pore size of 8 μm. The permeable supports were inserted into a 24 well plate. […]
Stained cells (i.e. those having migrated to the underside of the permeable support) were then counted. Total number of counted cells per experimental condition is shown (two inserts per condition were counted).

Substance	IDO expression (ASC [1])	number of migrating cells (ASC migration to the underside of the permeable support) (ASC [2])
TNF-α	did not induce IDO expression	–
Ile-Pro-Ile [Diprotin A]	–	increased migration of cells; also recorded: increased in proportion to the amount of Diprotin A
